Data reported in ChEMBL document CHEMBL5260828, “Amphiphilic glycoconjugates as potential anti-cancer chemotherapeutics” (Eur J Med Chem, 2018).
Values after ≈ are worked out from the molar mass of the structure shown. One block for each compound: values may come before it.

Assays:
HT-29 [1] = test: Cytotoxicity against human HT-29 cells incubated upto 96 hrs by MTT assay; assay type: functional, cell-based; conditions: HT-29, 96 h
Caco-2 = test: Cytotoxicity against human Caco-2 cells incubated upto 96 hrs by MTT assay; assay type: functional, cell-based; conditions: Caco-2, 96 h
T84 = test: Cytotoxicity against human T84 cells incubated upto 96 hrs by MTT assay; assay type: functional, cell-based; conditions: T84, 96 h
CWR22R = test: Cytotoxicity against human 22Rv1 cells assessed as inhibition of cell proliferation by propidium iodide assay; assay type: functional, cell-based
MAXF401 cell line = test: Cytotoxicity against human MAXF401 cells assessed as inhibition of cell proliferation by propidium iodide assay; assay type: functional, cell-based
HCT-116 [2] = test: Cytotoxicity against human HCT-116 cells assessed as inhibition of cell proliferation by propidium iodide assay; assay type: functional, cell-based
LNCaP = test: Cytotoxicity against human LNCaP cells assessed as inhibition of cell proliferation by propidium iodide assay; assay type: functional, cell-based
MCF7 = test: Cytotoxicity against human MCF7 cells assessed as inhibition of cell proliferation by propidium iodide assay; assay type: functional, cell-based
[3] = Cytotoxicity against human RXF 486L cells assessed as inhibition of cell proliferation by propidium iodide assay; assay type: functional, cell-based
[4] = Cytotoxicity against human OVXF 899L cells assessed as inhibition of cell proliferation by propidium iodide assay; assay type: functional, cell-based
OVCAR-3 = test: Cytotoxicity against human OVCAR-3 cells assessed as inhibition of cell proliferation by propidium iodide assay; assay type: functional, cell-based
[5] = Cytotoxicity against human GXF 251L cells assessed as inhibition of cell proliferation by propidium iodide assay; assay type: functional, cell-based
PANC-1 = test: Cytotoxicity against human PANC-1 cells assessed as inhibition of cell proliferation by propidium iodide assay; assay type: functional, cell-based
SF-268 = test: Cytotoxicity against human SF-268 cells assessed as inhibition of cell proliferation by propidium iodide assay; assay type: functional, cell-based
NCI-H460 = test: Cytotoxicity against human NCI-H460 cells assessed as inhibition of cell proliferation by propidium iodide assay; assay type: functional, cell-based
LXF-289 cell line = test: Cytotoxicity against human LXF-289 cell line assessed as inhibition of cell proliferation by propidium iodide assay; assay type: functional, cell-based
[6] = Cytotoxicity against human OVXF 1619L cells assessed as inhibition of cell proliferation by propidium iodide assay; assay type: functional, cell-based
[7] = Cytotoxicity against human MEXF 462NL cells assessed as inhibition of cell proliferation by propidium iodide assay; assay type: functional, cell-based
[8] = test system: Lung LXF 629L tumor cell line; test: Cytotoxicity against human Lung LXF 629L tumor cell line assessed as inhibition of cell proliferation by propidium iodide assay; assay type: functional, cell-based
HT-29 [9] = test: Cytotoxicity against human HT-29 cells assessed as inhibition of cell proliferation by propidium iodide assay; assay type: functional, cell-based
RXF 393 = test: Cytotoxicity against human RXF 393 cells assessed as inhibition of cell proliferation by propidium iodide assay; assay type: functional, cell-based
MEXF276L = test: Cytotoxicity against human MEXF276L cells assessed as inhibition of cell proliferation by propidium iodide assay; assay type: functional, cell-based
LXFL 529 = test: Cytotoxicity against human LXFL 529 cells assessed as inhibition of cell proliferation by propidium iodide assay; assay type: functional, cell-based
DU-145 = test: Cytotoxicity against human DU-145 cells assessed as inhibition of cell proliferation by propidium iodide assay; assay type: functional, cell-based
T-24 = test: Cytotoxicity against human T24 cells assessed as inhibition of cell proliferation by propidium iodide assay; assay type: functional, cell-based
PC-3M = test: Cytotoxicity against human PC-3M cells assessed as inhibition of cell proliferation by propidium iodide assay; assay type: functional, cell-based
MEXF514 = test: Cytotoxicity against human MEXF514 cells assessed as inhibition of cell proliferation by propidium iodide assay; assay type: functional, cell-based
RXF 944 = test: Cytotoxicity against human RXF 944 cells assessed as inhibition of cell proliferation by propidium iodide assay; assay type: functional, cell-based
[10] = Cytotoxicity against African green monkey Vero cells incubated for 48 hrs by SRB colorimetric assay; assay type: toxicity, cell-based, Chlorocebus sabaeus
NCI-H187 = test: Cytotoxicity against human NCI-H187 cells incubated for 48 hrs by SRB colorimetric assay; assay type: functional, cell-based; conditions: NCI-H187, 48 h
BC1 cell line = test: Cytotoxicity against human BC1 cell line incubated for 48 hrs by SRB colorimetric assay; assay type: functional, cell-based; conditions: BC1, 48 h
KB = test: Cytotoxicity against human KB cells incubated for 48 hrs by SRB colorimetric assay; assay type: functional, cell-based
NUGC-3 = test: Growth inhibition of human NUGC-3 cells; assay type: functional
NCI-H23 = test: Growth inhibition of human NCI-H23 cells; assay type: functional
HCT-116/VM46 = test: Cytotoxicity against human HCT-116/VM46 cells; assay type: functional, cell-based
A2780 = test: Cytotoxicity against human A2780 cells; assay type: functional, cell-based
HCT-116 [11] = test: Cytotoxicity against human HCT-116 cells; assay type: functional, cell-based

SMILES: C=C(C)[C@H]1CC=C(CO)CC1
- IC50 (HT-29 [1]): 100 µM
- IC50 (Caco-2): 78.5 µM
- IC50 (T84): 158 µM

SMILES: C/C=C(\C)[C@H](O[C@@H]1O[C@H](CO)[C@@H](O)[C@H](O)[C@H]1O)[C@H](C)/C=C(C)/C=C/C/C(C)=C/Cc1nc(OC)cc(O)c1C
- IC50 (CWR22R): 2 µM
- IC50 (MAXF401 cell line): 2 µM
- IC50 (HCT-116 [2]): 2 µM
- IC50 (LNCaP): 2 µM
- IC50 (MCF7): 2 µM
- IC50 [3]: 2 µM
- IC50 [4]: 2 µM
- IC50 (OVCAR-3): 2 µM
- IC50 [5]: 2 µM
- IC50 (PANC-1): 2 µM
- IC50 (SF-268): 2 µM
- IC50 (NCI-H460): 2 µM
- IC50 (LXF-289 cell line): 2 µM
- IC50 [6]: 2 µM
- IC50 [7]: 2 µM
- IC50 [8]: 2 µM
- IC50 (HT-29 [9]): 2 µM
- IC50 (RXF 393): 2 µM
- IC50 (MEXF276L): 2 µM
- IC50 (LXFL 529): 2 µM
- IC50 (DU-145): 2 µM
- IC50 (T-24): 2 µM
- IC50 (PC-3M): 2 µM
- IC50 (MEXF514): 2 µM
- IC50 (RXF 944): 2 µM

SMILES: CO[C@H]1[C@H](O)[C@@H](O)[C@H](O[C@H](C[C@@]2(C)[C@H](C)CCC(=O)[C@@H]2C)/C(C)=C/Cc2c(O)c(Cl)c(C)c(C=O)c2O)O[C@@H]1CO
- IC50 at 48 h [10]: 6.9 mg/L (≈ 11.5 µM)
- IC50 (NCI-H187): 7.9 mg/L (≈ 13.2 µM)
- IC50 (BC1 cell line): 8.4 mg/L (≈ 14 µM)
- IC50 (KB): 19 mg/L (≈ 31.7 µM)

- GI50 (NCI-H23): 25.2 mg/L (≈ 41.6 µM)
SMILES: CC(C)[C@H](CCCCCCCCCCCCC(=O)NCC(=O)O)O[C@@H]1O[C@H](COC(=O)CCC(=O)O)[C@@H](O)[C@H](O)[C@H]1O
- GI50 (NUGC-3): 17.8 mg/L (≈ 29.4 µM)

SMILES: CO[C@]12C=C[C@](C)(O1)[C@@H](OC(=O)/C=C/c1cn(C)cn1)C[C@H]1C(C)=CC[C@H](C(C)C)[C@H]1/C=C\2CO[C@@H]1OC[C@@H](O)[C@@H](O)[C@@H]1OC(C)=O [ELEUTHEROBIN]
- IC50 (HCT-116/VM46): 0.01 µM
- IC50 (A2780): 0.01 µM
- IC50 (HCT-116 [11]): 0.01 µM
